In patent US20090306218A1, “Antimicrobial formulations” (priority 2006, published 2009):
≈ marks a conversion by molar mass, not a printed value. Where two headings read alike, the source gives them in different places.

Key:
[1] = tested on: Propionibacterium acnes NCTC 737; assay: Minimum bactericidal concentration (MBC) assay; assay type: cell-based; conditions: P. acnes NCTC 737
Protocol: (§1) (b) Minimum Bactericidal Concentration (MBC) Assay
(§2) MIC, MBC and DDA assays, as described above, were carried out using the test compound t-butyl-p-hydroquinone (TBHQ) and a range of bismuth salts (all ex-Sigma Aldrich, UK).

[2] = tested on: P. granulosum panel strains; assay: MIC assay, liquid medium, panel of propionibacteria; assay type: cell-based, Propionibacterium granulosum
[3] = tested on: P. acnes PRP panel strains; assay type: cell-based, Propionibacterium acnes; conditions: for MIC: liquid medium
[4] = tested on: P. granulosum panel strains; assay: MBC assay, panel of propionibacteria
Protocol: (§8) This assay, normally carried out after an MIC assay, determines the minimum concentration of a compound that is lethal to the micro-organism being tested.
(§9) These samples were then individually sub-cultured on antibiotic-free agar medium, under the incubation conditions described above. Following incubation they were examined visually for microbial growth.

[5] = tested on: Por. gingivalis NCTC 11834; assay: MIC assay, liquid medium; assay type: cell-based, Porphyromonas gingivalis
Protocol: (§3) (a) Minimum Inhibitory Concentration (MIC) Assay
(§4) This is a standard international method for quantitatively assessing the antimicrobial activity of a compound in a liquid medium. The method used a sterile 96-well microtitre plate, capable of holding about 200 μl of liquid per well. […] The culture medium was as described above.
(§5) After incubation, the microtitre plate was examined visually (with the aid of a light box) for cloudiness in each well, which would indicate microbial growth. The MIC value was recorded as the lowest concentration of test compound required to inhibit microbial growth, i.e., the lowest concentration for which the liquid in the well remained clear.
(§6) The assays were conducted in duplicate (minimum) and included both negative (culture medium with no micro-organisms) and positive (culture medium plus diluting solvent plus micro-organism) controls.
(§7) MIC and MBC assays, as described above, were carried out using the test compounds t-butyl-p-hydroquinone (TBHQ) and bismuth subsalicylate (both ex-Sigma Aldrich). The TBHQ was dissolved in ethanol and the bismuth subsalicylate in DMSO. All the experiments were conducted in triplicate.

[6] = tested on: Propionibacterium acnes NCTC 737; assay: Disc diffusion assay (DDA); assay type: cell-based; conditions: P. acnes NCTC 737, 200 μg per disc
Protocol: (d) Disc Diffusion Assay (DDA)
This is an internationally recognised standard method for qualitatively assessing the antimicrobial activity of a compound.
A sterile paper disc was impregnated with a sample of the test compound in a suitable solvent and 30 minutes allowed for the solvents to evaporate (where possible). The disc was then placed on an agar plate onto which the test micro-organism had been inoculated. The plate was then incubated under the conditions described above, following which it was examined visually for signs of microbial growth. […] The diameter of this zone of “inhibition” was measured using a ProtoCOL™ automated zone sizer (Synbiosis, Cambridge, UK).
The TBHQ was dissolved in ethanol and the bismuth salts in DMSO.
All the (S)DDA experiments were conducted in triplicate.
DDA assays, as described above, were carried out using each of the test compounds individually. The quinone/bismuth salt combinations were then subjected to the SDDA assay described above.
The quinones and bismuth salts were all dissolved in DMSO.

[7] = tested on: P. acnes PRP panel strains; assay: MBC assay, panel of propionibacteria
Protocol: as §8, §9

[8] = tested on: P. acnes PRP panel strains; assay type: cell-based, Propionibacterium acnes; conditions: 200 μg per disc
[9] = tested on: Propionibacterium acnes NCTC 737; assay: Minimum inhibitory concentration (MIC) assay, liquid medium; assay type: cell-based; conditions: for MIC: P. acnes NCTC 737
Protocol: as §3, §4, §5, §6, §2

[10] = tested on: Por. gingivalis NCTC 11834; assay: MBC assay; assay type: cell-based, Porphyromonas gingivalis
Protocol: as §1, §7

[11] = tested on: P. granulosum panel strains; assay: Disc diffusion assay (DDA), panel of propionibacteria; assay type: cell-based, Propionibacterium granulosum; conditions: 200 μg per disc
[12] = P. granulosum NCTC 11865, resistance phenotype None
[13] = P. granulosum PRP-005, resistance phenotype MLSK
[14] = P. granulosum PRP-006, resistance phenotype MLS
[15] = P. granulosum PRP-019, resistance phenotype MLSK
[16] = P. granulosum PRP-021, resistance phenotype MLS
[17] = P. granulosum PRP-043, resistance phenotype MLS
[18] = P. granulosum PRP-044, resistance phenotype MLS
[19] = P. granulosum PRP-055, resistance phenotype None
[20] = P. acnes PRP-002, resistance phenotype Tet/MLS
[21] = P. acnes PRP-003, resistance phenotype Tet
[22] = P. acnes PRP-004, resistance phenotype Tet
[23] = P. acnes PRP-007, resistance phenotype Clin
[24] = P. acnes PRP-008, resistance phenotype Clin
[25] = P. acnes PRP-010, resistance phenotype MLSK
[26] = P. acnes PRP-017, resistance phenotype MLS
[27] = P. acnes PRP-023, resistance phenotype MLSK
[28] = P. acnes PRP-026, resistance phenotype MLS
[29] = P. acnes PRP-039, resistance phenotype Tet/MLS
[30] = P. acnes PRP-046, resistance phenotype None
[31] = P. acnes PRP-053, resistance phenotype Tet/MLS
[32] = P. acnes PRP-059, resistance phenotype MLS
[33] = P. acnes PRP-068, resistance phenotype Ery
[34] = P. acnes PRP-101, resistance phenotype Tet/MLS
[35] = P. acnes PRP-102, resistance phenotype Tet/MLS

Compound: CC(C)(C)c1cc(O)ccc1O [TBHQ, t-butyl-p-hydroquinone]
- MBC ([1]; Table 1): 7.8 µg/mL (≈ 46.9 µM)
- MIC/MBC ratio ([1]; Table 1): 1
- MBC ([1]; separate experiment, Table 3): 7.8 µg/mL (≈ 46.9 µM)
- MIC/MBC ratio ([1]; separate experiment, Table 3): 1
- MIC [2, 12]: 3.9 µg/mL (≈ 23.5 µM)
- MIC [2, 13]: 62.5 µg/mL (≈ 376 µM)
- MIC [2, 14]: 7.8 µg/mL (≈ 46.9 µM)
- MIC [2, 15]: 31.25 µg/mL (≈ 188 µM)
- MIC [2, 16]: 15.6 µg/mL (≈ 93.9 µM)
- MIC [2, 17]: 15.6 µg/mL (≈ 93.9 µM)
- MIC [2, 18]: 15.6 µg/mL (≈ 93.9 µM)
- MIC [2, 19]: 3.9 µg/mL (≈ 23.5 µM)
- MIC [3, 20]: 3.9 µg/mL (≈ 23.5 µM)
- MIC [3, 21]: 7.8 µg/mL (≈ 46.9 µM)
- MIC [3, 22]: 1.95 µg/mL (≈ 11.7 µM)
- MIC [3, 23]: 3.9 µg/mL (≈ 23.5 µM)
- MIC [3, 24]: 3.9 µg/mL (≈ 23.5 µM)
- MIC [3, 25]: 3.9 µg/mL (≈ 23.5 µM)
- MIC [3, 26]: 3.9 µg/mL (≈ 23.5 µM)
- MIC [3, 27]: 3.9 µg/mL (≈ 23.5 µM)
- MIC [3, 28]: 3.9 µg/mL (≈ 23.5 µM)
- MIC [3, 29]: 3.9 µg/mL (≈ 23.5 µM)
- MIC [3, 30]: 1.95 µg/mL (≈ 11.7 µM)
- MIC [3, 31]: 3.9 µg/mL (≈ 23.5 µM)
- MIC [3, 32]: 3.9 µg/mL (≈ 23.5 µM)
- MIC [3, 33]: 3.9 µg/mL (≈ 23.5 µM)
- MIC [3, 34]: 3.9 µg/mL (≈ 23.5 µM)
- MIC [3, 35]: 7.8 µg/mL (≈ 46.9 µM)
- activity against the panel of propionibacteria (in words) ([3]; P. acnes and P. granulosum strains of Tables 6 and 7): active against all of the propionibacterial strains tested
- MBC [4, 12]: 7.8 µg/mL (≈ 46.9 µM)
- MBC [4, 13]: 62.5 µg/mL (≈ 376 µM)
- MBC [4, 14]: 7.8 µg/mL (≈ 46.9 µM)
- MBC [4, 15]: 31.25 µg/mL (≈ 188 µM)
- MBC [4, 16]: 31.25 µg/mL (≈ 188 µM)
- MBC [4, 17]: 15.6 µg/mL (≈ 93.9 µM)
- MBC [4, 18]: 31.25 µg/mL (≈ 188 µM)
- MBC [4, 19]: 7.8 µg/mL (≈ 46.9 µM)
- MIC ([5]; Por. gingivalis NCTC 11834): <0.49 µg/mL
- activity against Por. gingivalis NCTC 11834 (in words) ([5]; compound alone, data of Table 8): active
- DDA (zone of inhibition diameter) ([6]; Table 2): 11.04 mm
- DDA (zone of inhibition diameter) ([6]; separate experiment, Table 4): 14.68 mm
- MBC [7, 20]: 7.8 µg/mL (≈ 46.9 µM)
- MBC [7, 21]: 7.8 µg/mL (≈ 46.9 µM)
- MBC [7, 22]: 7.8 µg/mL (≈ 46.9 µM)
- MBC [7, 23]: 7.8 µg/mL (≈ 46.9 µM)
- MBC [7, 24]: 7.8 µg/mL (≈ 46.9 µM)
- MBC [7, 25]: 15.6 µg/mL (≈ 93.9 µM)
- MBC [7, 26]: 7.8 µg/mL (≈ 46.9 µM)
- MBC [7, 27]: 7.8 µg/mL (≈ 46.9 µM)
- MBC [7, 28]: 7.8 µg/mL (≈ 46.9 µM)
- MBC [7, 29]: 7.8 µg/mL (≈ 46.9 µM)
- MBC [7, 30]: 7.8 µg/mL (≈ 46.9 µM)
- MBC [7, 31]: 7.8 µg/mL (≈ 46.9 µM)
- MBC [7, 32]: 7.8 µg/mL (≈ 46.9 µM)
- MBC [7, 33]: 7.8 µg/mL (≈ 46.9 µM)
- MBC [7, 34]: 7.8 µg/mL (≈ 46.9 µM)
- MBC [7, 35]: 15.6 µg/mL (≈ 93.9 µM)
- DDA (zone diameter) ([8]; P. acnes PRP-002): 18.12 mm
- DDA (zone diameter) ([8]; P. acnes PRP-003): 18.12 mm
- DDA (zone diameter) ([8]; P. acnes PRP-004): 19.88 mm
- DDA (zone diameter) ([8]; P. acnes PRP-007): 12.74 mm
- DDA (zone diameter) ([8]; P. acnes PRP-008): 17.92 mm
- DDA (zone diameter) ([8]; P. acnes PRP-010): 18.54 mm
- DDA (zone diameter) ([8]; P. acnes PRP-017): 13.98 mm
- DDA (zone diameter) ([8]; P. acnes PRP-023): 18.54 mm
- DDA (zone diameter) ([8]; P. acnes PRP-026): 13.98 mm
- DDA (zone diameter) ([8]; P. acnes PRP-039): 17.71 mm
- DDA (zone diameter) ([8]; P. acnes PRP-046): 20.71 mm
- DDA (zone diameter) ([8]; P. acnes PRP-053): 17.09 mm
- DDA (zone diameter) ([8]; P. acnes PRP-059): 19.88 mm
- DDA (zone diameter) ([8]; P. acnes PRP-068): 16.78 mm
- DDA (zone diameter) ([8]; P. acnes PRP-101): 12.84 mm
- DDA (zone diameter) ([8]; P. acnes PRP-102): 14.50 mm
- MIC ([9]; Table 1): 7.8 µg/mL (≈ 46.9 µM)
- MIC ([9]; separate experiment, Table 3): 7.8 µg/mL (≈ 46.9 µM)
- activity against P. acnes NCTC 737 (in words) ([9]; compound alone, data of Tables 1 and 2): active
- MBC [10]: 0.49 µg/mL (≈ 2.95 µM)
- MIC/MBC ratio [10]: <1
- DDA (zone diameter) ([11]; P. granulosum NCTC 11865): 11.50 mm
- DDA (zone diameter) ([11]; P. granulosum PRP-005): 10.67 mm
- DDA (zone diameter) ([11]; P. granulosum PRP-006): 9.42 mm
- DDA (zone diameter) ([11]; P. granulosum PRP-019): 10.36 mm
- DDA (zone diameter) ([11]; P. granulosum PRP-021): 0.00 mm
- DDA (zone diameter) ([11]; P. granulosum PRP-043): 0.00 mm
- DDA (zone diameter) ([11]; P. granulosum PRP-044): 0.00 mm
- DDA (zone diameter) ([11]; P. granulosum PRP-055): 18.02 mm
